Data: patent US12037344B2, “NLRP3 modulators” (INNATE TUMOR IMMUNITY, INC., priority 2018, dated 2024)
pEC50: −log10 of the molar value. Read-outs that look alike come from different tables or passages of the source.

Experiments:
[1] = biological target: T1, TLR8 (Homo sapiens, UniProt Q9NR97); assay: In vitro human TLR8 binding reporter assay (HEK-Blue, NF-kB/AP1-inducible SEAP); assay type: cell-based; details: read-out: TLR8 Agonist EC50
T1 construct: human HEK-Blue cells co-expressing a TLR7 or TLR8 gene
T1 sequence (Q9NR97 27-1041): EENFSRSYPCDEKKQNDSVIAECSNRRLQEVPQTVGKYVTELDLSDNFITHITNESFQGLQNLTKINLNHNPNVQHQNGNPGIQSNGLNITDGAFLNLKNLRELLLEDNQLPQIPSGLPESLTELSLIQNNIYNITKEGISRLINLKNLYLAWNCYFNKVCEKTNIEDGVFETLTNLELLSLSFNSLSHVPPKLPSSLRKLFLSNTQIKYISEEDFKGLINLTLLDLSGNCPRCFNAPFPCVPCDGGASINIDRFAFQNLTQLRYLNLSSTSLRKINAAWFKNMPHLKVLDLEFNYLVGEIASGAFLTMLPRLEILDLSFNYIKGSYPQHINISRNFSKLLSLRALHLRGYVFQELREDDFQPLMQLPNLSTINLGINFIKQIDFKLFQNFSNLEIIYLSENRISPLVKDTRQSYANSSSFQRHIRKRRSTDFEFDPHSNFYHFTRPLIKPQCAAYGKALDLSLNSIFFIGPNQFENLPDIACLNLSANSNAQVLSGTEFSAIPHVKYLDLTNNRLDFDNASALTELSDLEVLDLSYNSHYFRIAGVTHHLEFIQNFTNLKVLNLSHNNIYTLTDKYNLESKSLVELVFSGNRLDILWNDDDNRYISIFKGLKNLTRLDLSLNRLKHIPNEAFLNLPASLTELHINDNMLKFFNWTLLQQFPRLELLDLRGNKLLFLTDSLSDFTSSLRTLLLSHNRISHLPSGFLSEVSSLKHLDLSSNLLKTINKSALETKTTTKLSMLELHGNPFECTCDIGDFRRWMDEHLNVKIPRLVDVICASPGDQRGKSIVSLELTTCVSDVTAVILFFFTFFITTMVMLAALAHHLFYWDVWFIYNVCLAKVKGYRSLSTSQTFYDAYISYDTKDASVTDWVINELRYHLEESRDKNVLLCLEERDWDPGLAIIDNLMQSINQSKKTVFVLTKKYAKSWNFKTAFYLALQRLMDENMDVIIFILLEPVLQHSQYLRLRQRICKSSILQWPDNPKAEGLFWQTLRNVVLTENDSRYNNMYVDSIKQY
How it was run: (§1)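 HEK-Blue cells expressing human TLR7 or TLR8 with NF-kB/AP1-inducible SEAP reporter, plated 24 h, then compound-treated 18 h at 37° C, 5% CO2. EC50 normalized to 100% Ymax set by 50 μM reference standard.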

[2] = test system: THP-1 cells; assay: Measurement of IL-1β production, hTRF protocol (second alternative procedure), THP-1 cells; assay type: cell-based, human; details: Homo sapiens, THP-1, IL-1β production, read-out: NLRP3 hILIB EC50
How it was run: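 THP-1 cells differentiated overnight with 50 ng/ml PMA, then plated at 50,000 cells/well in RPMI with 2% FBS onto serial compound dilutions (top final concentration 10 μM) for 2 hours at 37° C. Supernatant IL-1β measured by hTRF (antibodies at 1:40, overnight at 4° C), read at 665/615 nm against a standard curve.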

[3] = biological target: T2, TLR7 (Homo sapiens, UniProt Q9NYK1); assay: In vitro human TLR7 binding reporter assay (HEK-Blue, NF-kB/AP1-inducible SEAP); assay type: cell-based; details: read-out: TLR7 Agonist EC50
T2 construct: human HEK-Blue cells co-expressing a TLR7 or TLR8 gene
T2 sequence (Q9NYK1 27-1049): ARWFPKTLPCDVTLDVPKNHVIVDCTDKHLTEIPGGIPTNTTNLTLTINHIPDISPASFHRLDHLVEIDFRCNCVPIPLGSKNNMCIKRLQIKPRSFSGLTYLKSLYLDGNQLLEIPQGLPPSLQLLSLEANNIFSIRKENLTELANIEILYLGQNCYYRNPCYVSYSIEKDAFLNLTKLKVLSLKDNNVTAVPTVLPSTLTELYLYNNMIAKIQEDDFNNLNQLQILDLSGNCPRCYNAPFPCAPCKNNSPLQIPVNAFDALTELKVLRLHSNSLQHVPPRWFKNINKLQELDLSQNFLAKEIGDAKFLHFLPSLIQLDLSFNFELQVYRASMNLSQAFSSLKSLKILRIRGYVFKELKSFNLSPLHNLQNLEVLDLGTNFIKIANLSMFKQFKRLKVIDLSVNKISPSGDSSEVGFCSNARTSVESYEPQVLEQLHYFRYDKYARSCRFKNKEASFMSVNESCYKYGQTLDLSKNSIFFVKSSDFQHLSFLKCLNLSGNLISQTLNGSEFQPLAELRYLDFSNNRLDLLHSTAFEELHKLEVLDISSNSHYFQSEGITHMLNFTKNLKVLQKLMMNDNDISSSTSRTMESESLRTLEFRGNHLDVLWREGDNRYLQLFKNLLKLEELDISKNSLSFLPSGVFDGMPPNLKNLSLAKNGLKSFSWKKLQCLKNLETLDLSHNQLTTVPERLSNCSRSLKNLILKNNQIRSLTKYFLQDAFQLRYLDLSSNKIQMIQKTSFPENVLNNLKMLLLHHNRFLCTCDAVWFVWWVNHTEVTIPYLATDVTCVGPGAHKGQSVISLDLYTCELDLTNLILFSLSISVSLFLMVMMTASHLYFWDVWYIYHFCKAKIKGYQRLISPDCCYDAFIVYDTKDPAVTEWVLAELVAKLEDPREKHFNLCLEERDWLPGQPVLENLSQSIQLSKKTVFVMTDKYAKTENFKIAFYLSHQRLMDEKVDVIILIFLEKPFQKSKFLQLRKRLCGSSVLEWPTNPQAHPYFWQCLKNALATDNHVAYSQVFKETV
How it was run: as §1

Structure (SMILES) | pEC50 ([1]; activity range class) | pEC50 ([2]; human) | pEC50 ([3]; activity range class) | pEC50 ([1]; activity range) | pEC50 ([2]; human cells) | pEC50 ([3]; activity range)
CC(C)(C)OC(=O)NCCn1cc2c(n1)c(N)nc1cc(-c3cccs3)ccc12 [Example 127, tert-butyl N-{2-[4-amino-7-(thiophen-2-yl)-2H-pyrazolo[3,4-c]quinolin-2-yl]ethyl}carbamate] | < 4.00 | 5.98 | < 4.00 | – | – | –
CC(C)(C(=O)N1CCCC1)n1cc2c(N)nc3cc(-c4cc[nH]n4)ccc3c2n1 [Example 509] | – | – | – | < 4.00 | 5.16 | < 4.00
Nc1nc2cc(-c3cc[nH]n3)ccc2c2cn(CCNC(=O)c3cccnc3)nc12 [Example 38] | < 4.00 | 5.31 | < 4.00 | – | – | –
Nc1nc2cc(-c3cc[nH]n3)ccc2c2cn(CCN3CCCC3=O)nc12 [Example 122, 1-{2-[4-amino-7-(1H-pyrazol-3-yl)-2H-pyrazolo[3,4-c]quinolin-2-yl]ethyl}pyrrolidin-2-one] | < 4.00 | 5.22 | < 4.00 | – | – | –
Nc1nc2cc(-c3cc[nH]n3)ccc2c2cn(CCNC(=O)c3ccc(F)c(Cl)n3)nc12 [Example 89] | 4.70 to 6.00 | 6.92 | < 4.00 | – | – | –
Nc1nc2cc(-c3cc[nH]n3)ccc2c2cn(CCNC(=O)c3ccc(F)cn3)nc12 [Example 31, N-{2-[4-amino-7-(1H-pyrazol-3-yl)-2H-pyrazolo[3,4-c]quinolin-2-yl]ethyl}-5-fluoropyridine-2-carboxamide] | 4.70 to 6.00 | 6.82 | 4.00 to 4.70 | – | – | –
Nc1nc2cc(-c3cc[nH]n3)ccc2c2nn(CCC(=O)N3CCOCC3)cc12 [Example 501] | – | – | – | < 4.00 | 6.14 | < 4.00
Cc1nnc(Cn2cc3c(N)nc4cc(-c5cc[nH]n5)ccc4c3n2)o1 [Example 243] | < 4.00 | 5.86 | < 4.00 | – | – | –
CC(=O)NCc1cc2c(N)nc3cc(-c4ccn[nH]4)ccc3c2[nH]1 [Example 443] | – | – | – | < 4.00 | 6.64 | < 4.00
Nc1nc2cc(-c3cc[nH]n3)ccc2c2cn(CCNC(=O)c3ccncc3)nc12 [Example 37] | < 4.00 | 6.02 | < 4.00 | – | – | –
CC(C(=O)N1CC(F)(F)C1)n1cc2c(N)nc3cc(-c4ccn[nH]4)ccc3c2n1 (stereo not drawn) [Example 577] | – | – | – | < 4.00 | 5.63 | < 4.00
CCNC(=O)Cn1cc2c(n1)c(N)nc1cc(-c3cc[nH]n3)ccc12 [Example 529] | – | – | – | < 4.00 | 6.06 | < 4.00
Nc1nc2cc(-c3ccn[nH]3)ccc2c2cn(CCNC(=O)c3ccccn3)cc12 [Example 286, N-[2-[4-amino-7-(1H-pyrazol-5-yl)-2H-pyrrolo[3,4-c]quinolin-2-yl]ethyl]pyridine-2-carboxamide] | < 4.00 | 6.39 | < 4.00 | – | – | –
Nc1nc2cc(-n3cccn3)ccc2c2nn(CCCO)cc12 [Example 251, 3-(4-amino-7-(1H-pyrazol-1-yl)-2H-pyrazolo[4,3-c]quinolin-2-yl)propan-1-ol] | < 4.00 | 6.21 | < 4.00 | – | – | –
Cn1ccnc1C(=O)NCCn1cc2c(n1)c(N)nc1cc(-c3cc[nH]n3)ccc12 [Example 99] | < 4.00 | 6.34 | 4.00 to 4.70 | – | – | –
